Source: article PMC11298430, “Synthesis and In vitro evaluation of bichalcones as novel anti-toxoplasma agents” (Frontiers in Chemistry, 2024)
Like-named read-outs stand apart in the source and are kept apart here.

How the values were obtained:
[1] = tested on: Toxoplasma gondii ME49 tachyzoites; experiment: Toxoplasma gondii in vitro inhibition assay (3H-uracil incorporation); format: cell-based
MTT cytotoxicity assay = format: cell-based; conditions: human
Method: (§1) The MTT [3-(4, 5-dimethylthiazole-2-yl)-2, 5-diphenyltetrazolium bromide] reduction assay ([Mosmann, 1983]) was used to quantify the cytotoxic effects of the examined chalcones and bichalcones on the host cells. To avoid edge effects, only the inner 60 wells of each plate were used. Briefly, 5 × 10^4 Hs27 cells per well were cultured in 96-well microtiter plates in Iscove’s modified Dulbecco’s medium (IMDM, Gibco–Thermo Fisher Scientific, Braunschweig, Germany, #12440053) with a volume of 100 µL per well and incubated overnight at 37°C until confluence. Different concentrations of the compounds (ranging from 200 μM to 0.09 µM) were then added to the Hs27 cells. Controls included untreated Hs27 cells treated with DMSO, and cells treated with staurosporine (0.031, 0.062, 0.125, 0.25, 0.5, 1 µM) (Merck, Darmstadt, Germany, #S4400), a natural product known for its potent activity as apoptosis inducer ([Belmokhtar et al., 2001]). After 24 h of incubation, the culture media were replaced with 100 µL of Dulbecco’s Modified Eagle Medium (DMEM) medium without red phenol (Gibco-Thermo Fisher Scientific, Braunschweig, Germany, #21041025) plus 10% heat-inactivated fetal bovine serum (FBS Standard, South America origin, fetal bovine serum, […] sterile filtered, PAN-Biotech, Aidenbach, Germany, #P30-3,306), and […] 2-mercaptoethanol (Gibco-Thermo Fisher Scientific, Braunschweig, Germany, #21985023). The experiment was performed following the manufacturer’s instructions (CyQuant MTT Cell Viability Assay Kit, Thermo Fisher Scientific, Braunschweig, Germany, #V-13154). Optical density (O.D.) was measured at 570 nm using a microplate reader (TECAN Sunrise, Männedorf, Switzerland). The half-maximal cytotoxic concentration (CC50) values of each compound against Hs27 cells relative to DMSO-treated samples were determined using GraphPad PRISM™ statistical software (version 9.5.1; San Diego, CA). In addition, the selectivity index (SI) of each compound was calculated from the ratio of CC50/IC50.

[2] = Stability experiments (reverse phase HPLC purity); format: physicochemical
Method: Table S3: Purity results of the stability experiments over a varying time span at different
Entry Variations Time Purity [%]
Table S4: Reverse Phase HPLC chromatogram of bichalcone 2ab (rac) in DMSO stock solution […]
Table S5: Reverse Phase HPLC chromatogram of bichalcone 2ab (rac) in DMSO stock solution
Table S6: Reverse Phase HPLC chromatogram of bichalcone 2ab (rac) in DMSO at -78 °C for […]

human fibroblasts Hs27 = experiment: MTT cytotoxicity assay; format: cell-based; conditions: 24 h
Method: as §1

Toxoplasma gondii = tested on: Toxoplasma gondii; design: method as in Touquet et al., 2018; conditions: literature value ref Touquet et al., 2018; cited from earlier work
[3] = Toxoplasma gondii, HS27, T. gondii ME49 tachyzoites in Hs27 host cells, 3H-uracil incorporation, n = 6, read-out: IC50 ± S.D.
[4] = T. gondii ME49 tachyzoites in Hs27 host cells, 3H-uracil incorporation, n = 6, read-out: IC50 ± S.D.
[5] = Toxoplasma gondii, HS27, read-out: IC50 ± S.D.
[6] = Hs27 cells, MTT, 24 h, n = 6, read-out: CC50

Structure (SMILES)	IC50 [1, 3] [µM]	CC50 at 24 h (MTT cytotoxicity assay) [µM]	other results
COc1cc(C)c(-c2c(C)cc(OC)c(C(=O)/C=C/c3ccccc3)c2O)c(O)c1C(=O)/C=C/c1ccccc1 (racemic) [2ab]	0.11 ± 0.02	> 200	Purity ([2]; 22 °C, DMSO, 24 h): 75.9%; Purity ([2]; 40 °C, DMSO, 24 h): 76.6%; Purity ([2]; 40 °C, MeOH, 24 h): 89.7%; Purity ([2]; 40 °C, MeOH, KOH, 24 h): 35.6%; Purity ([2]; -20 °C, DMSO, 6 months): 96.2%
COc1cc(C)c(-c2c(C)cc(OC)c(C(=O)/C=C/c3ccccc3)c2O)c(O)c1C(=O)/C=C/c1ccccc1 (single isomer, unassigned) [(R a)-2ab]			IC50 [1, 4]: 0.1 ± 0.01 µM; CC50 (human fibroblasts Hs27): > 200 µM
COc1cc(C)c(-c2c(C)cc(OC)c(C(=O)/C=C/c3ccccc3)c2O)c(O)c1C(=O)/C=C/c1ccccc1 (single isomer, unassigned) [(S a)-2ab]		> 200	IC50 [1, 4]: 0.31 ± 0.03 µM
COc1ccc(/C=C/C(=O)c2c(O)cc(C)cc2OC)cc1 [1aa]	21.8 ± 3.07	180 ± 32	
COc1cc(C)cc(O)c1C(=O)/C=C/c1ccccc1 [1ab]	14.1 ± 2.62	133 ± 28	
COc1cc(C)cc(O)c1C(=O)/C=C/c1ccc(N(C)C)cc1 [1ac]	> 50	> 200	
COc1cc(C)cc(O)c1C(=O)/C=C/c1ccc(C(F)(F)F)cc1 [1ad]	> 50	> 200	
COc1cc(C)cc(O)c1C(=O)/C=C/c1ccc(Br)cc1 [1ae]	10.6 ± 1.05	190 ± 99	
COc1cc(C)cc(O)c1C(=O)/C=C/c1cccc(Br)c1 [1af]	6.18 ± 0.55	134 ± 78	
COc1cc(C)cc(O)c1C(=O)/C=C/c1ccccc1Br [1ag]	> 50	> 200	
COc1ccc(/C=C/C(=O)c2c(O)cc(OC)cc2OC)cc1 [1ba]	8.08 ± 2.06	> 200	
COc1cc(O)c(C(=O)/C=C/c2ccccc2)c(OC)c1 [1bb]	6.01 ± 2.54	87.8 ± 16	
COc1cc(O)c(C(=O)/C=C/c2ccc(N(C)C)cc2)c(OC)c1 [1bc]			IC50 [1, 5]: > 50 µM; CC50 at 24 h (MTT cytotoxicity assay; [6]): > 200 µM
COc1cc(O)c(C(=O)/C=C/c2ccc(C(F)(F)F)cc2)c(OC)c1 [1bd]	> 50	> 200	
COc1cc(O)c(C(=O)/C=C/c2ccc(Br)cc2)c(OC)c1 [1be]			IC50 [1, 5]: > 50 µM; CC50 at 24 h (MTT cytotoxicity assay; [6]): > 200 µM
COc1cc(O)c(C(=O)/C=C/c2cccc(Br)c2)c(OC)c1 [1bf]	11.3 ± 0.61	> 200	

Structure (SMILES)	IC50 [1, 3] [µM]	CC50 at 24 h (MTT cytotoxicity assay) [µM]	other results
COc1cc(O)c(C(=O)/C=C/c2ccccc2Br)c(OC)c1 [1bg]			IC50 [1, 5]: 4.46 ± 0.46 µM; CC50 at 24 h (MTT cytotoxicity assay; [6]): 86.5 ± 72 µM
COc1ccc(/C=C/C(=O)c2c(OC)cc(C)c(-c3c(C)cc(OC)c(C(=O)/C=C/c4ccc(OC)cc4)c3O)c2O)cc1 [2aa]	6.63 ± 0.77	> 200	
COc1cc(C)c(-c2c(C)cc(OC)c(C(=O)/C=C/c3ccc(N(C)C)cc3)c2O)c(O)c1C(=O)/C=C/c1ccc(N(C)C)cc1 [2ac]	> 50	> 200	
COc1cc(C)c(-c2c(C)cc(OC)c(C(=O)/C=C/c3ccc(C(F)(F)F)cc3)c2O)c(O)c1C(=O)/C=C/c1ccc(C(F)(F)F)cc1 [2ad]	24.7 ± 3.52	> 200	
COc1cc(C)c(-c2c(C)cc(OC)c(C(=O)/C=C/c3ccc(Br)cc3)c2O)c(O)c1C(=O)/C=C/c1ccc(Br)cc1 [2ae]	7.91 ± 1.14	> 200	
COc1cc(C)c(-c2c(C)cc(OC)c(C(=O)/C=C/c3cccc(Br)c3)c2O)c(O)c1C(=O)/C=C/c1cccc(Br)c1 [2af]	30.5 ± 7.21	> 200	
COc1cc(C)c(-c2c(C)cc(OC)c(C(=O)/C=C/c3ccccc3Br)c2O)c(O)c1C(=O)/C=C/c1ccccc1Br [2ag]	18.44 ± 0.1	> 200	
COc1ccc(/C=C/C(=O)c2c(OC)cc(OC)c(-c3c(OC)cc(OC)c(C(=O)/C=C/c4ccc(OC)cc4)c3O)c2O)cc1 [2ba]	> 50	> 200	
COc1cc(OC)c(-c2c(OC)cc(OC)c(C(=O)/C=C/c3ccccc3)c2O)c(O)c1C(=O)/C=C/c1ccccc1 [2bb]	9.75 ± 1.95	> 200	
COc1cc(OC)c(-c2c(OC)cc(OC)c(C(=O)/C=C/c3ccc(N(C)C)cc3)c2O)c(O)c1C(=O)/C=C/c1ccc(N(C)C)cc1 [2bc]	> 50	> 200	
COc1cc(OC)c(-c2c(OC)cc(OC)c(C(=O)/C=C/c3ccc(C(F)(F)F)cc3)c2O)c(O)c1C(=O)/C=C/c1ccc(C(F)(F)F)cc1 [2bd]	3.09 ± 0.15	> 200	
COc1cc(OC)c(-c2c(OC)cc(OC)c(C(=O)/C=C/c3ccc(Br)cc3)c2O)c(O)c1C(=O)/C=C/c1ccc(Br)cc1 [2be]	8.55 ± 1.28	> 200	
COc1cc(OC)c(-c2c(OC)cc(OC)c(C(=O)/C=C/c3cccc(Br)c3)c2O)c(O)c1C(=O)/C=C/c1cccc(Br)c1 [2bf]	12.4 ± 2.09	> 200	
COc1cc(OC)c(-c2c(OC)cc(OC)c(C(=O)/C=C/c3ccccc3Br)c2O)c(O)c1C(=O)/C=C/c1ccccc1Br [2bg]	> 50	> 200	
CCc1nc(N)nc(N)c1-c1ccc(Cl)cc1 [PYR, pyrimethamine, reference compound]	0.22 ± 0.05	> 100	IC50 (Toxoplasma gondii): 400 nM
